According to patent US20020188022A1, “Methods for modulation, stimulation, and inhibition of glutamate reuptake” (Annovis. Inc., priority 2000, published 2002):
Where two headings read alike, the source gives them in different places.

How the values were obtained:
[1] = biological target: T1, Glial Glutamate Transporter (GLAST and GLT1); experiment: Binding of [3H]-4MG to rat forebrain membrane homogenates in Na+-containing HEPES buffer; conditions: for Displacement of 4MG binding: at or above 100 μM, FIG. 5
T1 construct: Bmax; other: 20 nM [3H]-4MG, 4° C; KD
Protocol: (§1) Forebrain tissue from female Sprague Dawley rats was homogenized in HEPES buffer containing Na^+, and membranes were washed twice in the same buffer. Binding experiments were also performed in this buffer. Initial studies determined appropriate parameters for time (15 minutes incubation at 4° C.) and drug concentration (20 nM [^3H]-4MG) to be used in subsequent experiments. Following incubation of [^3H]-4MG with or without other compounds, binding was terminated by rapid filtration through Whatman GF/B filter discs and washing 3 times with buffer using a Brandel cell harvester. Binding was determined by scintillation spectrometry. A full range of association, dissociation, saturation and inhibition studies was performed over varying incubation times (up to 60 min). Data were analysed using computer-assisted curve fitting. Values are expressed as mean of at least triplicate determinations and multiple experiments.
(§2) A full range of association, dissociation, saturation and inhibition studies was performed over varying incubation times (up to 60 min). Data were analysed using computer-assisted curve fitting. Values cited are expressed as mean of at least triplicate determinations and multiple experiments.

[2] = tested on: Glial Glutamate Transporter (GLAST and GLT1); experiment: as above; conditions: FIG. 5
Protocol: as §1, §2

[3] = Hydrolysis of prodrug to the acid form; format: in vitro ADME
Description: (§3) The ester, carbonate, and amine bond in any prodrug forms of compounds identified by the disclosed method can be readily cleaved in vivo. Therefore, prodrug compositions can be hydrolyzed to the corresponding acid forms in plasma.

[4] = Bioavailability and half-life of prodrug; format: in vivo; conditions: compared with 1
Description: as §3

Analgesic effect test = format: in vivo; conditions: compared with 1
Description: as §3

[5] = 20 nM [3H]-4MG, 4° C., read-out: Displacement of 4MG binding to rat brain membrane homogenates, IC50

In the case of C[C@H](C[C@H](N)C(=O)O)C(=O)O [4MG, (2S,4R)-4-methylglutamate], the Kd [1] is reported as 5.4 µM and the IC50 ([1]; read-out: Displacement of 4MG binding to rat brain membrane homogenates, IC50) is reported as 6.7 µM.

In the case of Cc1onc(O)c1CC(N)C(=O)O (stereo not drawn) [AMPA, α-amino-3-hydroxy-5-methyl-4-isoxazolepropionate], the “Displacement of 4MG binding” value [1] is reported as “failed to significantly displace”.

With CC(C)(C)c1o[nH]c(=O)c1CC(N)C(=O)O (stereo not drawn) [ATPA] the “Effect on 4MG and/or D-aspartate binding to GluTs” value (“Effect … to GluTs” below) [2] was “failed to affect”.

With N[C@H](C(=O)O)[C@H]1C[C@H]1C(=O)O [CCG-III, (2S,3S,4R)-2-(carboxycyclopropyl)glycine] the IC50 [1, 5] was 1.2 µM.

In the case of N[C@H](CC(=O)O)C(=O)O [D-aspartate], the IC50 [1, 5] is reported as 10.9 µM.

With N[C@@H](Cn1cc(F)c(=O)[nH]c1=O)C(=O)O [FW, fluorowillardiine] the “Displacement of 4MG binding” value [1] was “failed to significantly displace”.

For NCCCC(=O)O [GABA, γ-aminobutyric acid], the “Effect … to GluTs” value [2] was “failed to affect”.

With NCC(=O)O [GLY, glycine] the “Effect … to GluTs” value [2] was “failed to affect”.

In the case of N[C@@H](Cn1cc(I)c(=O)[nH]c1=O)C(=O)O [IW, iodowillardine], the “Effect … to GluTs” value [2] is reported as “failed to affect”.

For N[C@@H](CC(=O)O)C(=O)O [L-aspartate], the IC50 [1, 5] was 7.5 µM.

For CN[C@H](CC(=O)O)C(=O)O [NMDA, N-methyl-D-aspartate], the “Displacement of 4MG binding” value [1] was “failed to significantly displace”.

O=C(O)[C@H]1CN[C@H](C(=O)O)C1 [PDC, L-trans-pyrrolidine-2,4-dicarboxylate] gave an IC50 [1, 5] of 2.9 µM.

N[C@@H](COS(=O)(=O)O)C(=O)O [SOS, L-serine-O-sulphate] showed an IC50 [1, 5] of 40 µM.

C[C@H](C[C@H](N)C(=O)O)C(=O)O [SYM 2081] showed an IC50 ([1]; Table 2, read-out: Inhibition of Binding of [3H]-4MG to Glial Glutamate Transporter, IC50) of 29 µM.

With COC(=O)[C@H](C)C[C@H](N)C(=O)OC [compound 2, (2S,4R)-4-methyl glutamic acid dimethyl ester] the “Hydrolysis to (2S,4R)-4-methyl glutamic acid (1)” value [3] was “readily hydrolyzed”, the Bioavailability [4] was “enhanced bioavailability” and the Half-life [4] was “longer half-life”. The Analgesic effect (Analgesic effect test) was “analgesic effect similar to 1”.

Compound N[C@@H](CCC(=O)O)C(=O)O [glutamate, L-glutamic acid] has an IC50 [1, 5] of 6.1 µM.

Work on “L-anti-endo-3,4-methanopyrrolidine dicarboxylate [MPDC]” yielded an IC50 [1, 5] of 4 µM.
